Here are results for one molecule from patent US20260021167A1, “COMPOSITIONS AND METHODS FOR TREATING OR PREVENTING NEURODEGENERATIVE DISEASES” (Delaware State University, priority 2022, published 2026).

The test system of data set [1] is PFF-injected old mice. The experiment in a line: Nesting in PFF-injected mice. Conditions: 10 and/or 50 mg/kg oral, vs PFF only. The data set is classed as in vivo, mouse. Here is the method:
(§1) A mouse model of Parkinson's disease is C57BL/6 male or female mice (50% each) injected with 5 μg of mouse PFF at 12 months old, followed by a treatment below for 6-7 weeks: • 1) without PFF injection, followed by vehicle (control, n=7); • 2) PFF injection, followed by vehicle (PFF only: control, n=8); • 3) PFF injection, followed by daily 10 mg/kg Momordin gavage (n=7-8); • 4) PFF injection, followed by daily 50 mg/kg Momordin gavage (n=7-8).
Nesting. A 5×5 cm cotton nesting patch was placed in a clean cage housing a single animal. On the following day, pictures were taken of the condition of the nesting material utilized and analyzed in a blind manner. The ability of an animal to tear up the cotton nesting material and build a nest dictates the activity and motor coordination levels of the animal. Three dimensionally built nest was given as 5 points as the highest score, and a barely touched nesting patch was considered a low score of 1 point. The points were represented on the graph to show any improvement in nesting capabilities across the groups.

Data set [2] has as its system PFF-injected old mice. The experiment in a line: Grooming in PFF-injected mice. The data set is classed as in vivo, mouse. The conditions noted are these: 10 and/or 50 mg/kg oral, vs PFF only. On the procedure: as §1
Grooming. Individual pictures of each animal were taken over 3 days and analyzed for grooming capabilities. Additional data were collected over 6 weeks during the gavaging period for PFF-injected mice to monitor whether the mice in all groups performed grooming activities uniformly. The points were averaged at the end of the assessment after the mice were euthanized. The coat conditions of each animal were assessed to correlate motivation and activity levels for each animal. […] The grooming pictures were also analyzed by blinded raters and given a point out of 10, with 1 being a poor/dull coat and 10 being a shiny and healthy-looking coat.

The next data set has as its system N27 cells. The experiment in a line: ROS level (CellROX deep red) after PFF treatment. The conditions noted are these: compared to PFF only control. The class given is cell-based, rat. On the procedure:
ROS Levels and Thioflavin-T Assessment. The reactive oxygen species (ROS) is a released byproduct during oxidative stress. On the other hand, thioflavin-T is an assay used to understand the level of protein aggregation that can be detrimental to cell survival. In order to assess the level of oxidative stress, all the SENP-1 inhibitors treated cells were incubated in media containing 5 μg/mL of the ROS reagent CellROX deep red reagent (C10422, Thermo Fisher Scientific) and 25 μg/mL of thioflavin-T reagent (CAS: 2390-54-7, Acros Organics) at 37° C. for 30 min. The cells were then washed 3 times with warm phosphate-buffered saline (PBS) without Ca^2+ or Mg^2+ (137 mM NaCl, 2.7 mM KCl, 4.3 mM Na2HPO4, and 1.47 mM KH2PO4), and several images from each well were collected using EVOS FL Cell Imaging Systems (Invitrogen, MA, USA). A minimum of 2 wells were dedicated to each group, and the experiments were repeated 3-4 times independently (total replicated: n=8-10/group). The intensity of red fluorescence corresponding to ROS levels and green labels corresponding to protein aggregation was analyzed by blinded raters using ImageJ.

For a further data set, the system named is PFF-injected mice. As to the kind of experiment: Behavioral tests overall in PFF-injected mice. The data set is classed as in vivo, mouse. The conditions noted are these: 10 or 50 mg/kg oral. Here is the method: as §1
Behavioral tests were performed using the methods described in Ghosh et al. (Int J Mol Sci. 2022 Apr. 12; 23 (8): 4262) (FIG. 11A).

For the next data set, the system named is nigrostriatal neurons. As to the kind of experiment: ROS in nigrostriatal neurons of PFF-injected mice. The data set is classed as in vivo. The conditions noted are these: PFF injection, mouse brains.
Data set [3] has as its system PFF-injected old mice. The experiment in a line: Pole test in PFF-injected mice. Conditions: 10 and/or 50 mg/kg oral, vs PFF only. The class given is in vivo, mouse. On the procedure: as §1
Pole Test. All the mice were placed on a vertical pole with their face up and habituated to face down the pole to climb down for 5 consecutive days. The time taken for a mouse to turn and position for the descend was noted, and the latency for climb-down was counted. A mouse falling off or slipping down the pole without turning was considered a failure. Videos of the pole test were taken and analyzed by a blinded rater to record the total climb-down or turn time. Minimal 5 trials were performed for each animal, and the average of 5 trials was considered as the final score for data presentation.

The nature of data set [4]: Passage of the BBB in mice. The class given is in vivo, mouse. The conditions noted are these: 10 or 50 mg/kg.
For data set [5] the following is noted: low and high dosages (10 or 50 mg/kg).
A further data set has as its target T1, SENP-1 on α-synuclein (Mus musculus, UniProt P59110).
T1 construct: from tissue; host or cells: mouse brain: midbrain and striatum, α-synuclein immunoprecipitates
T1 sequence (P59110 1-640): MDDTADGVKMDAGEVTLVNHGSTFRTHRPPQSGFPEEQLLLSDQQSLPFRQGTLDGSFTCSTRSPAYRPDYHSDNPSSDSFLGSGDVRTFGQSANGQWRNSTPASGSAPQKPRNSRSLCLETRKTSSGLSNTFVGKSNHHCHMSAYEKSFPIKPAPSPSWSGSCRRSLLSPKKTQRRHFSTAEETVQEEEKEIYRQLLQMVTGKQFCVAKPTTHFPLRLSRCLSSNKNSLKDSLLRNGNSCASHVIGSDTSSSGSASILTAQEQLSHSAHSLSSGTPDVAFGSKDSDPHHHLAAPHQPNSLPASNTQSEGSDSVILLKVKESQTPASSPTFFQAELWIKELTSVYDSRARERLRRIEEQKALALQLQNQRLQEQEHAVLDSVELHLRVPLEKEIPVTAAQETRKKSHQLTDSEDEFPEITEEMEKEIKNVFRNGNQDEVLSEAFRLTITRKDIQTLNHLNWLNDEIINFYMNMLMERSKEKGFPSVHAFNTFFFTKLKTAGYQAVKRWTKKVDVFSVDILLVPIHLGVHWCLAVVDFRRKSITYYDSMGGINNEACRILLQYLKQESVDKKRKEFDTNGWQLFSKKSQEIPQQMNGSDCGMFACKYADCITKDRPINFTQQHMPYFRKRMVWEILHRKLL
The experiment in a line: Western blot of SENP-1 on α-synuclein in α-synuclein IP tissue samples. The class given is in vivo. Conditions: PFF-injected mice, vs PFF only. Here is the method: (§2) A) In Western blots, Momordin reversed the toxicity from PFF injection in reducing phospho-α-synuclein and SENP-1 on α-synuclein in the MB and STR. […] A pathological marker, phosphorylated α-synuclein was increased by PFF injection, which was reversed by Momordin treatment in the MB (F) and the STR (G).
as §1

Data set [6] concerns phosphorylated α-synuclein. As to the kind of experiment: Western blot of phosphorylated α-synuclein in α-synuclein IP tissue samples. The data set is classed as in vivo, mouse. The conditions noted are these: PFF-injected mice, vs PFF only. On the procedure: as §2, §1
On the technique in general: In western blotting, separated proteins are transferred to a membrane and probed.

With `CC1(C)CC[C@]2(C(=O)O)CC[C@]3(C)C(=CC[C@@H]4[C@@]5(C)CC[C@H](O[C@@H]6O[C@H](C(=O)O)[C@@H](O)[C@H](O[C@@H]7OC[C@@H](O)[C@H](O)[C@H]7O)[C@H]6O)C(C)(C)[C@@H]5CC[C@]43C)[C@@H]2C1` [Momordin lc], the nesting entry with PFF-injected old mice [1] is listed as “improves the nesting”. For the same molecule, the grooming result in the data set on PFF-injected old mice [2] is “improves”. Besides, in the data set with N27 cells, the “level of ROS” value is listed as “reduced the level of ROS”. Besides, the “behavioral / motor deficits derived from PFF injection” value is “improved the behavioral deficits” in the data set with PFF-injected mice and “alleviates severe motor deficits” in the data set on PFF-injected mice (listed as Momordin). Also, in the data set on nigrostriatal neurons, the “level of ROS in nigrostriatal neurons” value was “alleviated the level of ROS”. Further, the “climb-down time in pole tests” value with PFF-injected old mice [3] is “reduces”. Besides, the “turn time in pole tests” value in the data set on PFF-injected old mice [3] is listed as “reduces”. Also, the “passage of the BBB” value in data set [4] is listed as “effectively pass the BBB”. In data set [5], the safety in mice result was “safe”. For the same molecule, the “PFF-induced SENP-1 on α-synuclein in the MB (α-synuclein IP)” value at SENP-1 on α-synuclein (midbrain) is reported as “reduced”. The “PFF-induced SENP-1 on α-synuclein in the STR (α-synuclein IP)” value at SENP-1 on α-synuclein (striatum) is given as “reduced”. Moreover, the “phosphorylated α-synuclein in the MB (α-synuclein IP)” value in data set [6] (midbrain) is on record as “reversed”. The “phosphorylated α-synuclein in the STR (α-synuclein IP)” value in data set [6] (striatum) was “reversed”.
